Drawing on patent US5120841A, “Cephalosporin ester derivatives” (Takeda Chemical Industries, Ltd., priority 1983, dated 1992), this text covers AUC, antibacterial activity and Bioavailability for twelve compounds.

Molecules are shown by their SMILES. Where a name gives a salt, the structure may show the parent alone.

Data set [1] can be described thus: oral administration to mice: plasma level of non-ester compound (compound [II]), AUC and bioavailability. The following applies: compound [II] in plasma, 100 mg/kg (in terms of compound [II]), zero to 2 hours. Format: in vivo.
The next data set deals with Proteus mirabilis. The following applies: gram-negative bacteria, Antimicrobial Agent and Chemotherapy 14, 557-568 (1978); cited from earlier work.
The next data set concerns Klebsiella pneumoniae. The following applies: gram-negative bacteria, Antimicrobial Agent and Chemotherapy 14, 557-568 (1978); cited from earlier work.
In another data set the test system is Staphylococcus aureus. The following applies: gram-positive bacteria, Antimicrobial Agent and Chemotherapy 14, 557-568 (1978); cited from earlier work.
The conditions of data set [2]: mouse, in vivo, sc, 120 min. Here is the method:
At 0.25, 0.5, 1.0 and 2.0 hours after administration, the concentration of compound [II] in plasma of the mouse is measured by the cup method using Proteus mirabilis Eb 313 as the test organism and the area under plasma concentration-time curve from zero to 2 hours (AUC) is calculated.
The compound [II ] was subcutaneously applied and AUC was calculated in the same manner as above.

The test system of a further data set is proteus morganii. The following applies: gram-negative bacteria, Antimicrobial Agent and Chemotherapy 14, 557-568 (1978); cited from earlier work.
A further data set has as its system Escherichia coli. The following applies: gram-negative bacteria, Antimicrobial Agent and Chemotherapy 14, 557-568 (1978); cited from earlier work.
The next data set relates to Proteus vulgaris. The following applies: gram-negative bacteria, Antimicrobial Agent and Chemotherapy 14, 557-568 (1978); cited from earlier work.

Regarding `CC(C)[C@@H]1CC[C@@H](C)C[C@H]1OC(=O)OCOC(=O)C1=C(CSc2nnnn2CCN(C)C)CS[C@@H]2[C@H](NC(=O)Cc3csc(N)n3)C(=O)N12` [Example 1-6], in data set [1], the exposure (AUC) (commonly concentration integrated over time) came to 29400 ng·h/mL. In turn, `CN(C)CCn1nnnc1SCC1=C(C(=O)OCOC(=O)OC2CCCCC2)N2C(=O)[C@@H](NC(=O)Cc3csc(N)n3)[C@H]2SC1` [Example 1-1, Cyclohexyloxycarbonyloxy 7β-[2-Aminothiazol-4-yl)Acetamido]-3-[[[1-(2-Dimethylaminoethyl)-1H-Tetrazol-5-yl]Thio]Methyl]Ceph-3-Em-4-Carboxylate Dihydrochloride] came in with an AUC in data set [1] of 30000 ng·h/mL.

`CC(OC(=O)OC1CCCCC1C)OC(=O)C1=C(CSc2nnnn2CCN(C)C)CSC2C(NC(=O)Cc3csc(N)n3)C(=O)N12` (stereo not drawn) [Example 2-12]: the AUC in data set [1] (100 mg/kg) stood at 35500 ng·h/mL. Compound `CCOC(=O)OC(C)OC(=O)C1=C(CSc2nnnn2CCN(C)C)CS[C@@H]2[C@H](NC(=O)Cc3csc(N)n3)C(=O)N12` (stereo partly drawn) [A, 1-(ethoxycarbonyloxy)ethyl 78-[2-(2-aminothiazol-4-yl)acetamido]-3-[[[1-(2-dimethylaminoethyl)-1H-tetrazol-5-yl]-thio]methyl]ceph-3-em-4-carboxylate, reference compound] registered an AUC in data set [1] of 9280 ng·h/mL.

In data set [1], `CCC(OC(=O)OC1CCCCC1)OC(=O)C1=C(CSc2nnnn2CCN(C)C)CS[C@@H]2[C@H](NC(=O)Cc3csc(N)n3)C(=O)N12` (stereo partly drawn) [Example 5-2] yielded an AUC of 31300 ng·h/mL. Same read-out and setting: with `CCCC(OC(=O)OC1CCCCC1)OC(=O)C1=C(CSc2nnnn2CCN(C)C)CS[C@@H]2[C@H](NC(=O)Cc3csc(N)n3)C(=O)N12` (stereo partly drawn) [Example 5-7] the figure was 36300 ng·h/mL. `CN(C)CCn1nnnc1SCC1=C(C(=O)O)N2C(=O)[C@@H](NC(=O)Cc3csc(N)n3)[C@H]2SC1` [compound[II], 7β-[2-(2-aminothiazol-4-yl)acetamido]-3-[[[1-(2-dimethylaminoethyl)-1H-tetrazol-5-yl]thio]methyl]-ceph-3-em-4-carboxylic acid]: the antibacterial activity entry in the data set with Proteus mirabilis, in the data set with Klebsiella pneumoniae, in the data set with Staphylococcus aureus, in the data set on proteus morganii, in the data set with Escherichia coli and in the data set on Proteus vulgaris was “potent antibacterial activity” throughout. In data set [2], this compound returned a Bioavailability of 100%.

In data set [1], `CN(C)CCn1nnnc1SCC1=C(C(=O)OCOC(=O)OC2CCCCCCCCCCC2)N2C(=O)[C@@H](NC(=O)Cc3csc(N)n3)[C@H]2SC1` [Example 1-5] returned an area under the curve (AUC) of 33100 ng·h/mL.

`CC(OC(=O)OC1CCCCC1C)OC(=O)C1=C(CSc2nnnn2CCN(C)C)CSC2C(NC(=O)Cc3csc(N)n3)C(=O)N12` (stereo not drawn) [Example 2-13] had an AUC in data set [1] (100 mg/kg) of 36100 ng·h/mL. Turning to `CC(OC(=O)OC1CCCCC1C)OC(=O)C1=C(CSc2nnnn2CCN(C)C)CS[C@@H]2[C@H](NC(=O)Cc3csc(N)n3)C(=O)N12` (stereo partly drawn) [Example 2-11], the AUC in data set [1] is 35400 ng·h/mL. On the same count and under the same terms, in the case of `CC(OC(=O)OC1CCCCC1)OC(=O)C1=C(CSc2nnnn2CCN(C)C)CS[C@@H]2[C@H](NC(=O)Cc3csc(N)n3)C(=O)N12.Cl.Cl` (stereo partly drawn) [Example 2-1, 1-(Cyclohexyloxycarbonyloxy)ethyl 7β-[2-(2-aminothiazol-4-yl)acetamido]-3-[[[1-(2-dimethylaminoethyl)-1H-tetrazol-5-yl]thio]methyl]ceph-3-em-4-carboxylate dihydrochloride] it was 30000 ng·h/mL; in that of `CC1CCCC(OC(=O)OC(C)OC(=O)C2=C(CSc3nnnn3CCN(C)C)CS[C@@H]3[C@H](NC(=O)Cc4csc(N)n4)C(=O)N23)C1` (stereo partly drawn) [Example 2-10], 30100 ng·h/mL.
